#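 The compound was tested at five concentrations on cells cultured in 96-well plates, with a 48-hour exposure period. TGI is the concentration that stops growth completely.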
# What was measured:
# Assay in all cases: growth of human tumour cells (NCI), 48 h
# [1] = system: CAKI-1 renal
# [2] = system: ACHN renal
# [3] = system: UACC-62 melanoma
# [4] = system: SK-OV-3 ovarian
# [5] = system: HOP-92 NSCLC
# [6] = system: OVCAR-3 ovarian
# [7] = system: UACC-257 melanoma
# [8] = system: EKVX NSCLC
# [9] = system: RPMI-8226 leukemia
# [10] = system: OVCAR-4 ovarian
# [11] = system: SF-539 CNS
# [12] = system: MCF7 breast
# [13] = system: SK-MEL-2 melanoma
# [14] = system: SF-295 CNS
# [15] = system: A549 NSCLC
# [16] = system: A498 renal
# [17] = system: IGROV1 ovarian
# [18] = system: HOP-62 NSCLC
# [19] = system: DU-145 prostate
# [20] = system: LOX IMVI melanoma
# [21] = system: NCI-H522 lung
# [22] = system: T-47D breast
# [23] = system: CCRF-CEM leukemia
# [24] = system: NCI/ADR-RES ovarian
# [25] = system: NCI-H460 lung
# [26] = system: HL-60(TB) leukemia
# [27] = system: K-562 leukemia
# [28] = system: KM12 colon
# [29] = system: M14 melanoma
# [30] = system: HCT-15 colon
# [31] = system: MDA-MB-435
# [32] = system: HCT-116 colon
# [33] = system: PC-3 prostate
# [34] = system: TK-10 renal
# [35] = system: HT29 colon
# [36] = system: SF-268 CNS
# [37] = system: SK-MEL-28 melanoma
# [38] = system: SW-620 colon
# [39] = system: NCI-H226 lung
# [40] = system: MDA-N
# [41] = system: HS 578T breast
# [42] = system: OVCAR-8 ovarian
# [43] = system: SK-MEL-5 melanoma
# [44] = system: HCC-2998 colon
# [45] = system: SNB-19 CNS
# [46] = system: 786-0 renal
# [47] = system: MOLT-4 leukemia
# [48] = system: SNB-75 CNS
# [49] = system: SN12C renal
# [50] = system: U251 CNS
# [51] = system: RXF 393 renal
# [52] = system: COLO 205 colon
# [53] = system: MALME-3M melanoma
# [54] = system: MDA-MB-231 breast
# [55] = system: NCI-H23 lung
# [56] = system: OVCAR-5 ovarian
# [57] = system: UO-31 renal
# [58] = system: BT-549 breast
# [59] = system: SR leukemia
structure (smiles),measurement,setting,value
CC1(C)SCc2nc3ccccc3n21,TGI,[1],> 100 µM
same,TGI,[2],> 100 µM
same,TGI,[3],> 100 µM
same,TGI,[4],> 100 µM
same,TGI,[5],> 100 µM
same,TGI,[6],> 100 µM
same,TGI,[7],> 100 µM
same,TGI,[8],> 100 µM
same,TGI,[9],> 100 µM
same,TGI,[10],> 100 µM
same,TGI,[11],> 100 µM
same,TGI,[12],> 100 µM
same,TGI,[13],> 100 µM
same,TGI,[14],> 100 µM
same,TGI,[15],> 100 µM
same,TGI,[16],> 100 µM
same,TGI,[17],> 100 µM
same,TGI,[18],> 100 µM
same,TGI,[19],> 100 µM
same,TGI,[20],> 100 µM
same,TGI,[21],> 100 µM
same,TGI,[22],> 100 µM
same,TGI,[23],> 100 µM
same,TGI,[24],> 100 µM
same,TGI,[25],> 100 µM
same,TGI,[26],> 100 µM
same,TGI,[27],> 100 µM
same,TGI,[28],> 100 µM
same,TGI,[29],> 100 µM
same,TGI,[30],> 100 µM
same,TGI,[31],> 100 µM
same,TGI,[32],> 100 µM
same,TGI,[33],> 100 µM
same,TGI,[34],> 100 µM
same,TGI,[35],> 100 µM
same,TGI,[36],> 100 µM
same,TGI,[37],> 100 µM
same,TGI,[38],> 100 µM
same,TGI,[39],> 100 µM
same,TGI,[40],> 100 µM
same,TGI,[41],> 100 µM
same,TGI,[42],> 100 µM
same,TGI,[43],> 100 µM
same,TGI,[44],> 100 µM
same,TGI,[45],> 100 µM
same,TGI,[46],> 100 µM
same,TGI,[47],> 100 µM
same,TGI,[48],3.56 µM
same,TGI,[49],> 100 µM
same,TGI,[50],> 100 µM
same,TGI,[51],> 100 µM
same,TGI,[52],> 100 µM
same,TGI,[53],> 100 µM
same,TGI,[54],> 100 µM
same,TGI,[55],> 100 µM
same,TGI,[56],> 100 µM
same,TGI,[57],> 100 µM
C=C(CCC/C(C)=C/C=C/[C@H](C)CCCc1ccoc1)C[C@@H]1OC(=O)[C@H](C)[C@@H]1O,TGI,[1],19.2 µM
same,TGI,[2],18.4 µM
same,TGI,[3],16.6 µM
same,TGI,[4],16.8 µM
same,TGI,[5],18.5 µM
same,TGI,[6],17.6 µM
same,TGI,[7],16.4 µM
same,TGI,[8],21 µM
same,TGI,[58],16.9 µM
same,TGI,[9],30.2 µM
same,TGI,[10],13.1 µM
same,TGI,[11],19.2 µM
same,TGI,[12],33.9 µM
same,TGI,[13],17.8 µM
same,TGI,[14],22.9 µM
same,TGI,[15],15.2 µM
same,TGI,[16],17.2 µM
same,TGI,[17],24.6 µM
same,TGI,[18],18.8 µM
same,TGI,[19],19 µM
same,TGI,[20],31.6 µM
same,TGI,[21],18.8 µM
same,TGI,[59],37.8 µM
same,TGI,[22],17.6 µM
same,TGI,[23],33.6 µM
same,TGI,[24],22.5 µM
same,TGI,[25],45 µM
same,TGI,[27],28.6 µM
same,TGI,[28],23.3 µM
same,TGI,[29],19.4 µM
same,TGI,[30],27.4 µM
same,TGI,[31],18.5 µM
same,TGI,[32],42.4 µM
same,TGI,[33],17.2 µM
same,TGI,[34],22.2 µM
same,TGI,[35],50 µM
same,TGI,[36],18.1 µM
same,TGI,[37],15.6 µM
same,TGI,[38],26.7 µM
same,TGI,[39],16.6 µM
same,TGI,[40],20.5 µM
same,TGI,[42],27.5 µM
same,TGI,[43],17 µM
same,TGI,[44],37 µM
same,TGI,[45],17.1 µM
same,TGI,[46],27.4 µM
same,TGI,[47],29.5 µM
same,TGI,[48],17.3 µM
same,TGI,[49],17.7 µM
same,TGI,[50],24.3 µM
same,TGI,[51],14.2 µM
same,TGI,[52],27.4 µM
same,TGI,[53],19.8 µM
same,TGI,[54],19.4 µM
same,TGI,[55],18.2 µM
same,TGI,[56],23.8 µM
same,TGI,[57],15.6 µM
CC(C)OC(=O)NNc1cccc(Cl)c1,TGI,[1],> 100 µM
same,TGI,[2],> 100 µM
same,TGI,[3],> 100 µM
same,TGI,[4],> 100 µM
same,TGI,[5],> 100 µM
same,TGI,[6],> 100 µM
same,TGI,[7],> 100 µM
same,TGI,[8],> 100 µM
same,TGI,[9],> 100 µM
same,TGI,[11],> 100 µM
same,TGI,[12],> 100 µM
same,TGI,[13],> 100 µM
same,TGI,[14],> 100 µM
same,TGI,[15],> 100 µM
same,TGI,[16],> 100 µM
same,TGI,[18],> 100 µM
same,TGI,[19],> 100 µM
same,TGI,[20],> 100 µM
same,TGI,[59],> 100 µM
same,TGI,[22],> 100 µM
same,TGI,[23],> 100 µM
same,TGI,[24],> 100 µM
same,TGI,[25],> 100 µM
same,TGI,[26],> 100 µM
same,TGI,[27],> 100 µM
same,TGI,[28],> 100 µM
same,TGI,[29],> 100 µM
same,TGI,[30],> 100 µM
same,TGI,[31],> 100 µM
same,TGI,[32],> 100 µM
same,TGI,[33],> 100 µM
same,TGI,[34],> 100 µM
same,TGI,[35],> 100 µM
same,TGI,[36],> 100 µM
same,TGI,[37],> 100 µM
same,TGI,[38],> 100 µM
same,TGI,[39],> 100 µM
same,TGI,[40],> 100 µM
same,TGI,[41],> 100 µM
same,TGI,[42],> 100 µM
same,TGI,[43],> 100 µM
same,TGI,[44],> 100 µM
same,TGI,[45],> 100 µM
same,TGI,[46],> 100 µM
same,TGI,[47],> 100 µM
same,TGI,[48],> 100 µM
same,TGI,[49],> 100 µM
same,TGI,[50],> 100 µM
same,TGI,[51],> 100 µM
same,TGI,[52],> 100 µM
same,TGI,[53],> 100 µM
same,TGI,[54],> 100 µM
same,TGI,[55],> 100 µM
same,TGI,[56],> 100 µM
same,TGI,[57],> 100 µM
